Test results from patent US8119805B2, “Substituted disulfonamide compounds” (Gruenenthal GmbH, priority 2008, dated 2012).
Structures can show the parent of a compound that is named as a salt.

How the values were obtained:
[1] = biological target: T1, human B1R receptor (hB1R) (Homo sapiens, UniProt P46663); assay: Functional investigation on the bradykinin 1 receptor (B1R), FLIPR Ca2+ assay, hB1R cells; assay type: cell-based; conditions: test substance 10 μM; CHO K1 cells transfected with human B1R gene; Fluo-4 Ca2+ signal; agonist Lys-Des-Arg9-bradykinin at EC80; % of maximum achievable inhibition; read-out: B1R antagonism, human [10 μM] % inhibition
T1 construct: expressed in transfected cells; host or cells: CHO K1 cells
T1 sequence (P46663 1-353): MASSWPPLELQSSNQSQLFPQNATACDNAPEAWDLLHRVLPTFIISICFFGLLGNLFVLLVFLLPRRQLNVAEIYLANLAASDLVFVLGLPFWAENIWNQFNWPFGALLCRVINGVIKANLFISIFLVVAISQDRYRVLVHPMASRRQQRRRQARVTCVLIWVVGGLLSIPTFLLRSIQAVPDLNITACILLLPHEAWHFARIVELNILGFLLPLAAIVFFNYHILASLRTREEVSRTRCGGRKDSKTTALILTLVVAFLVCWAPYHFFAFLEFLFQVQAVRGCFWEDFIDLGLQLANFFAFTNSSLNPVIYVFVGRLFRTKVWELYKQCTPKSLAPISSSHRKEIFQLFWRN
Experimental: (§1) The agonistic or antagonistic action of substances on the bradykinin 1 receptor (B1R) of the human and rat species can be quantified with ectopically expressing cell lines (CHO K1 cells) and with the aid of a Ca^2+-sensitive dyestuff (Fluo-4) in a fluorescent imaging plate reader (FLIPR). The value in % activation is based on the Ca^2+ signal after addition of Lys-Des-[…]-bradykinin (0.5 nM) or Des-[…]-bradykinin (100 nM). Antagonists lead to a suppression of the Ca^2+inflow after addition of the agonist. % inhibition compared with the maximum achievable inhibition is stated. The agonistic or antagonistic action of substances on the bradykinin 1 receptor (B1R) of the human and rat species can be determined with the following assay. In accordance with this assay, the Ca^2+ inflow through the channel is quantified with the aid of a Ca^2+-sensitive dyestuff (type Fluo-4, Molecular Probes Europe BV, Leiden, Holland) in a fluorescent imaging plate reader (FLIPR, Molecular Devices, Sunnyvale, USA). Chinese hamster ovary cells (CHO K1 cells) transfected stably with the human B1R gene (hB1R cells) or the B1R gene of the rat (rB1R cells) are used. For functional studies, these cells are plated out on black 96-well plates with a clear base (BD Biosciences, Heidelberg, Germany or Greiner, Frickenhausen, Germany) in a density of 20,000-35,000 cells/well. The cells are left overnight at 37° C. and 5% CO2 in culture medium (hB1R cells: Nutrient Mixture Ham's F12, Gibco Invitrogen GmbH, Karlsruhe, Germany or DMEM, Sigma-Aldrich, Taufkirchen, Germany; rB1R cells: D-MEM/F12, Gibco Invitrogen GmbH, Karlsruhe, Germany) with 10 vol. % FBS (foetal bovine serum, Gibco Invitrogen GmbH, Karlsruhe, Germany or PAN Biotech GmbH, Aidenbach, Germany). On the following day, the cells are loaded for 60 min at 37° C. with 2.13 μM Fluo-4 (Molecular Probes Europe BV, Leiden Holland) in HBSS buffer (Hank's buffered saline solution, Gibco Invitrogen GmbH, Karlsruhe, Germany) with 2.5 mM probenecid (Sigma-Aldrich, Taufkirchen, Germany) and 10 mM HEPES (Sigma-Aldrich, Taufkirchen, Germany). The plates are then washed 2× with HBSS buffer, and HBSS buffer which additionally contains 0.1% BSA (bovine serum albumin; Sigma-Aldrich, Taufkirchen, Germany), 5.6 mM glucose and 0.05% gelatine (Merck KGaA, Darmstadt, Germany) is added. After a further incubation of 20 minutes at room temperature, the plates are inserted into the FLIPR for the Ca^2+ measurement. Alternatively, the plates are washed with buffer A (15 mM HEPES, 80 mM NaCl, 5 mM KCl, 1.2 mM CaCl2, 0.7 mM MgSO4, 2 g/l glucose, 2.5 mM probenecid), buffer A is added and the plates are loaded with 2.5 μM Fluo-4 and 0.025% Pluronic F127 (Sigma-Aldrich, Taufkirchen, Germany). Thereafter, the cells are washed 2× with buffer A and incubated for 30 minutes at room temperature with buffer A, which additionally contains 0.05% BSA and 0.05% gelatine, and thereafter inserted into the FLIPR for the Ca^2+ measurement. The Ca^2+-dependent fluorescence is measured here before and after addition of substances (λex=488 nm, λem=540 nm). Quantification is by measurement of the highest fluorescence intensity (FC, fluorescence counts) over time. The FLIPR protocol consists of 2 additions of substance. Test substances (10 μM) are first pipetted on to the cells and the Ca^2+ inflow is compared with the control (hB1R: Lys-Des-[…]-bradykinin>=50 nM; rB1R: Des-[…]-bradykinin 10 μM). This gives the result in % activation based on the Ca^2+ signal after addition of Lys-Des-[…]-bradykinin (>=50 nM) or Des-[…]-bradykinin (10 μM). After incubation for 10-20 minutes, Lys-Des-[…]-bradykinin (hB1R) or Des-[…]-bradykinin (rB1R) at the EC80 concentration is applied and the inflow of Ca^2+ is likewise determined. Antagonists lead to a suppression of the Ca^2+ inflow. The percent inhibition compared to the maximum achievable inhibition is calculated. In order to determine the IC50 value, the substances are added in various concentrations. […]

[2] = biological target: T2, B1R receptor of the rat (rB1R) (Rattus norvegicus, UniProt P97583); assay: Functional investigation on the bradykinin 1 receptor (B1R), FLIPR Ca2+ assay, rB1R cells; assay type: cell-based; conditions: test substance 10 μM; CHO K1 cells transfected with rat B1R gene; Fluo-4 Ca2+ signal; agonist Des-Arg9-bradykinin at EC80; % of maximum achievable inhibition; read-out: B1R antagonism, rat [10 μM] % inhibition
T2 construct: expressed in transfected cells; host or cells: CHO K1 cells
T2 sequence (P97583 1-337): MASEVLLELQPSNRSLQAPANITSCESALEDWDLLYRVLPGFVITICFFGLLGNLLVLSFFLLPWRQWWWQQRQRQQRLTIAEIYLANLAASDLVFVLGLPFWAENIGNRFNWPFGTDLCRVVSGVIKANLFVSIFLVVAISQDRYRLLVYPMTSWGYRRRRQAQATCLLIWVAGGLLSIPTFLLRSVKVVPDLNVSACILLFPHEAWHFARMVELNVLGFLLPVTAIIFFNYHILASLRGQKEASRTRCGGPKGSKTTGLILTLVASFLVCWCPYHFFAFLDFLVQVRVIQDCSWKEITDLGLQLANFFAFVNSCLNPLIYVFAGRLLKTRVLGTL
Experimental: as §1

Row | Structure (SMILES) | inhibition at 10 µM [1] [%] | inhibition at 10 µM [2] [%]
1 | Cc1cc(C)c(S(=O)(=O)N2CCC(CCS(=O)(=O)N3CCC(CCN4CCCC4)CC3)C2)c(C)c1 (centres unmarked) [Example 1, 1-(2-(1-(Mesitylsulfonyl)pyrrolidin-3-yl)ethylsulfonyl)-4-(2-(pyrrolidin-1-yl)ethyl)piperidine] | 83 | 
2 | O=S(=O)(CCC[C@@H]1CCCN1S(=O)(=O)c1cccc(Cl)c1Cl)N1CCC(Oc2ccncc2)CC1 [Example 52, (S)-4-(1-(3-(1-(2,3-Dichlorophenylsulfonyl)pyrrolidin-2-yl)propylsulfonyl)piperidin-4-yloxy)pyridine] | 71 | 87
3 | O=S(=O)(CCC[C@@H]1CCCN1S(=O)(=O)c1cccc2ccccc12)N1CCC2(CCN(c3ccncc3)CC2)CC1 [Example 67, 3-(3-((S)-1-(Naphthalen-1-ylsulfonyl)pyrrolidin-2-yl)propylsulfonyl)-9-(pyridin-4-yl)-3,9-diazaspiro[5.5]undecane hydrochloride] | 98 | 97
4 | COc1cc(C)c(S(=O)(=O)N2CCC[C@H]2CCCS(=O)(=O)N2[C@@H]3CC[C@H]2C[C@H](Oc2ccncc2)C3)c(C)c1 [Example 54, (1R,3R,5S)-8-(3-((S)-1-(4-Methoxy-2,6-dimethylphenylsulfonyl)pyrrolidin-2-yl)propylsulfonyl)-3-(pyridin-4-yloxy)-8-azabicyclo[3.2.1]octane] | 100 | 98
5 | CN1CCC(N2CCN(S(=O)(=O)CCC[C@@H]3CCCN3S(=O)(=O)c3cccc(C(F)(F)F)c3)CC2)CC1 [Example 35, (S)-1-(1-Methylpiperidin-4-yl)-4-(3-(1-(3-(trifluoromethyl)phenylsulfonyl)pyrrolidin-2-yl)propylsulfonyl)piperazine] | 23 | 91
6 | Cc1cc(C)c(S(=O)(=O)N2CCC(CCCS(=O)(=O)N3CCC(CCN4CCCC4)CC3)CC2)c(C)c1 [Example 12, 1-(Mesitylsulfonyl)-4-(3-(4-(2-(pyrrolidin-1-yl)ethyl)piperidin-1-ylsulfonyl)propyl)piperidine] | 52 | 
7 | Cc1cc(C)c(S(=O)(=O)N2CCC(CCCS(=O)(=O)N3CCN(C4CCN(C)CC4)CC3)CC2)c(C)c1 [Example 13, 1-(3-(1-(Mesitylsulfonyl)piperidin-4-yl)propylsulfonyl)-4-(1-methylpiperidin-4-yl)piperazine] | 53 | 
8 | O=S(=O)(CCC1CCN(S(=O)(=O)c2c(Cl)cc(C(F)(F)F)cc2Cl)CC1)N1CCC(CCN2CCCC2)CC1 [Example 14, 1-(2,6-Dichloro-4-(trifluoromethyl)phenylsulfonyl)-4-(2-(4-(2-(pyrrolidin-1-yl)ethyl)piperidin-1-ylsulfonyl)ethyl)piperidine] | 58 | 
9 | O=S(=O)(CCC1CCN(S(=O)(=O)c2csc3ccccc23)C1)N1CCC(CCN2CCCC2)CC1 (centres unmarked) [Example 3, 1-(2-(1-(Benzo[b]thiophen-3-ylsulfonyl)pyrrolidin-3-yl)ethylsulfonyl)-4-(2-(pyrrolidin-1-yl)ethyl)piperidine] | 55 | 

Continued, values first:

Row | inhibition at 10 µM [1] [%] | inhibition at 10 µM [2] [%] | Structure (SMILES)
10 | 44 | 27 | COc1cc(C)c(S(=O)(=O)N2CCCC(CCS(=O)(=O)N3CCC(CCN4CCCC4)CC3)C2)c(C)c1C (centres unmarked) [Example 39, 1-(4-Methoxy-2,3,6-trimethylphenylsulfonyl)-3-(2-(4-(2-(pyrrolidin-1-yl)ethyl)piperidin-1-ylsulfonyl)ethyl)piperidine hydrochloride]
11 | 99 | 96 | COc1cc(C)c(S(=O)(=O)N2CCC[C@@H]2CCCS(=O)(=O)N2CCN(C3CCN(C)CC3)CC2)c(C)c1 [Example 34, (R)-1-(3-(1-(4-Methoxy-2,6-dimethylphenylsulfonyl)pyrrolidin-2-yl)propylsulfonyl)-4-(1-methylpiperidin-4-yl)piperazine]
12 | 96 | 82 | COc1cc(C)c(S(=O)(=O)N2CCC[C@H]2CCCS(=O)(=O)N2CCC3(CCN(c4ccncc4)C3)C2)cc1C (stereo partly drawn) [Example 84, 2-(3-((S)-1-(4-Methoxy-2,5-dimethylphenylsulfonyl)pyrrolidin-2-yl)propylsulfonyl)-7-(pyridin-4-yl)-2,7-diazaspiro[4.4]nonane]
13 | 105 | 99 | COc1cc(C)c(S(=O)(=O)N2CCC[C@H]2CCCS(=O)(=O)N2CCN(C3CCN(C)CC3)CC2)c(C)c1 [Example 32, (S)-1-(3-(1-(4-Methoxy-2,6-dimethylphenylsulfonyl)pyrrolidin-2-yl)propylsulfonyl)-4-(1-methylpiperidin-4-yl)piperazine]
14 | 99 | 95 | COc1cc(C)c(S(=O)(=O)N2CCCCC2CCCS(=O)(=O)N2CCC3(CCN(c4ccncc4)CC3)CC2)c(C)c1 (centres unmarked) [Example 74, 3-(3-(1-(4-Methoxy-2,6-dimethylphenylsulfonyl)piperidin-2-yl)propylsulfonyl)-9-(pyridin-4-yl)-3,9-diazaspiro[5.5]undecane]
15 | 100 | 102 | COc1cc(C)c(S(=O)(=O)N2CCCCC2CCCS(=O)(=O)N2CCC3(CC2)CCC(OCCN2CCCC2)(c2cccnc2)CC3)c(C)c1 (centres unmarked) [Example 87, 3-(3-(1-(4-Methoxy-2,6-dimethylphenylsulfonyl)piperidin-2-yl)propylsulfonyl)-9-(pyridin-3-yl)-9-(2-(pyrrolidin-1-yl)ethoxy)-3-azaspiro[5.5]undecane]
16 | 50 |  | COc1cc(C)c(S(=O)(=O)N2CCC[C@H]2CCCS(=O)(=O)N2CCN(c3nccs3)CC2)c(C)c1C [Example 40, (S)-2-(4-(3-(1-(4-Methoxy-2,3,6-trimethylphenylsulfonyl)pyrrolidin-2-yl)propylsulfonyl)piperazin-1-yl)thiazole]
